# Target: T1, human mineralocorticoid Receptor-α (MRα) (Homo sapiens, UniProt P08235)
# T1 construct: made in house; host or cells: Sf21 insect cells (baculovirus), as described for GR
# T1 sequence (P08235 1-984): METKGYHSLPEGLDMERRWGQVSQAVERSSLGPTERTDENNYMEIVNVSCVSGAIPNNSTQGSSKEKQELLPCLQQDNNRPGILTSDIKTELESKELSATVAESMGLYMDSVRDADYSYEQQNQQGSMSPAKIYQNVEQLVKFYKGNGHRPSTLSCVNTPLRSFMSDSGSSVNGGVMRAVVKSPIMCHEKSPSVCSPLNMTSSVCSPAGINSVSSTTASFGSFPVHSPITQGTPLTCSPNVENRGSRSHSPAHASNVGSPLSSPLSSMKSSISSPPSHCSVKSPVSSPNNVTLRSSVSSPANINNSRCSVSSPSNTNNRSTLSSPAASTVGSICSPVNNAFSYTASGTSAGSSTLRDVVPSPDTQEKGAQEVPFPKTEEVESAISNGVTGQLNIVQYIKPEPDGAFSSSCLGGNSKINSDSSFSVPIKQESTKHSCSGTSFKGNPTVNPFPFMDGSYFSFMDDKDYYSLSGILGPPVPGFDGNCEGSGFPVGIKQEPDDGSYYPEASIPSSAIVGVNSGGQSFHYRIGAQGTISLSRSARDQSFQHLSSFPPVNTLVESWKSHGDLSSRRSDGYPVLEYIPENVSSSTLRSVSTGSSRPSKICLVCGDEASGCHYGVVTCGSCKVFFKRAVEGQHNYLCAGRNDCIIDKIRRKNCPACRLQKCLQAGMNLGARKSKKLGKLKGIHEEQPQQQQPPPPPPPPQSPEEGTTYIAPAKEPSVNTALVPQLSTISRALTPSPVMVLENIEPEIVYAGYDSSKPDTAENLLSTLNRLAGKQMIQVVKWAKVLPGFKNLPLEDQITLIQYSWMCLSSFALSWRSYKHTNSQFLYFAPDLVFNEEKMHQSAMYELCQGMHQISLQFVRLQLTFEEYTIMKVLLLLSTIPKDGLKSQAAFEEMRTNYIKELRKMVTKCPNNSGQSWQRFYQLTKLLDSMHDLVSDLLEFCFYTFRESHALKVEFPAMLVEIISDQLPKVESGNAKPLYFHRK
# Test: Mineralocorticoid binding assay ([3H]aldosterone displacement, MR lysate)
# Experimental: Human mineralocorticoid receptor protein was prepared from a baculovirus expression plasmid comprising cDNA encoding human mineralocorticoid Receptor-α (MRα), as described for GR (Example 158).
# Binding assay samples were prepared in separate mini-tubes in a 96-well format at 4° C. Each binding assay sample was prepared in a volume of 250 μl of MR-Assay Buffer (10% glycerol, 10 mM sodium phosphate, 10 mM potassium fluoride, 20 mM sodium molybdate, 0.25 mM CHAPS, 2 mM DTT, (adjusted to pH 7.35)) containing 5-10 μg of MR lysate; 2-4 nM of [^3H]aldosterone; unlabeled aldosterone; and a test compound. Each test compound was assayed at several different concentrations, ranging from 0 to 10^−5 M and each was tested in the presence and in the absence of several different concentrations of unlabeled aldosterone. Each concentration of each test compound was assayed in triplicate. The assay samples were incubated for 16 hours at 4° C.
# After incubation, protein was precipitated with hydroxylapatite, collected, and counted as described in Example 158 for GR. Specific binding for a particular sample was calculated using the same equation as was used for GR: (Sample CPM)−(Average Non-specific CPM) Average Non-specific CPM was defined as the amount of radioactivity from samples comprising an excess (i.e. 1000 nM) of unlabeled aldosterone. […] Ki values were determined using the Cheng-Prusoff equation using a previously determined Kd value for aldosterone: Ki=IC50/(1+[L]/Kd) [L]=concentration of labeled aldosterone Kd=dissociation constant of labeled aldosterone
row,SMILES,Ki [nM]
1,"Cc1cc(-c2csc(C#N)c2)c(Cl)c2c1NC(C)(C)CC2C (racemic) [Compound 244, (±)-5-Chloro-6-(5-cyanothiophen-3-yl)-1,2,3,4-tetrahydro-2,2,4,8-tetramethylquinoline]",6
2,"CC(=O)Oc1c(-c2cccc(C#N)c2)cc(C)c2c1C(C)CC(C)(C)N2 (racemic) [Compound 245, (±)-5-Acetoxy-6-(3-cyanophenyl)-1,2,3,4-tetrahydro-2,2,4,8-tetramethylquinoline]",47
3,"Cc1cc(-c2cncnc2)c(Cl)c2c1NC(C)(C)CC2C (racemic) [Compound 256, (±)-5-Chloro-1,2,3,4-tetrahydro-2,2,4,8-tetramethyl-6-(pyrimidin-5-yl)quinoline]",60
4,"CC1=CC(C)(C)Nc2ccc(-c3cccc(C(F)(F)F)c3)c(Cl)c21 [Compound 230, 5-Chloro-1,2-dihydro-2,2,4-trimethyl-6-[3-(trifluoromethyl)phenyl]quinoline]",12
5,"CC1=CC(C)(C)Nc2c(C)cc(-c3cccc(C)c3)c(Cl)c21 [Compound 234, 5-Chloro-1,2-dihydro-2,2,4,8-tetramethyl-6-(3-methylphenyl)quinoline]",85
6,"CCC(=O)c1cccc(-c2cc(C)c3c(c2Cl)C(C)=CC(C)(C)N3)c1 [Compound 238, 5-Chloro-1,2-dihydro-2,2,4,8-tetramethyl-6-[3-(propionyl)phenyl]quinoline]",18
7,"CC1=CC(C)(C)Nc2ccc(-c3cccc(C(N)=O)c3)c(Cl)c21 [Compound 239, 6-(3-Carbamoylphenyl)-5-chloro-1,2-dihydro-2,2,4-trimethylquinoline]",22

# From patent US20070254917A1, “INTRACELLULAR RECEPTOR MODULATOR COMPOUNDS AND METHODS” (priority 2004, published 2007)
